Test results published in US20250000834A1, “COMPOSITIONS AND METHODS FOR TARGETING GPCR FOR THE PREVENTION AND TREATMENT OF PAIN” (Duke University, priority 2021, published 2025).

How the values were obtained:
hGPR37L1 = biological target: T1, hGPR37L1 (Homo sapiens, UniProt O60883); experiment: Beta-arrestin assay (PathHunter hGPR37L1 CHO-K1); assay type: cell-based; details: hGPR37L1 ChoK1 cells
T1 sequence (O60883 26-481): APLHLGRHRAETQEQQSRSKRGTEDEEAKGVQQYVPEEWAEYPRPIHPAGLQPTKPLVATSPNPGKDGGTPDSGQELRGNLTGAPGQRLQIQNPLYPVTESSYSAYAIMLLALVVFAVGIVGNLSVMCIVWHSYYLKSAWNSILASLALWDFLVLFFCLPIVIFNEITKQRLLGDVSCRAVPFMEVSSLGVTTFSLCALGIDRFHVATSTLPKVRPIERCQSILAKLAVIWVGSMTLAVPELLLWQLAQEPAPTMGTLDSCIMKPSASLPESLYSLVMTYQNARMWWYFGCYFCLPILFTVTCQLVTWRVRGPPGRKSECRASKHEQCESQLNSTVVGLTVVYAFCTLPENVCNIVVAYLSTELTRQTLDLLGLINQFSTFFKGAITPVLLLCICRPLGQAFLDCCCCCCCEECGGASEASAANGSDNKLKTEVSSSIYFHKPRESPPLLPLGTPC
Description: Beta-arrestin assay: To screen for GPR37L1 ligands, the PathHunter® eXpress GPR37L1 CHO-K1 kit was purchased from Eurofins Discoveryone™ (DiscoverX Solutions for Drug Discovery, Fremont, CA; Cat #93-0378E2ACP1M). CHO-K1 cells express human GPR37L1 and were grown in 96-well plates for 48 hours. Lipid compounds were incubated with the ChoK1 cells for 1 hour at 37° C., and GPR37L1 activation was determined by measuring chemiluminescence using the beta-arrestin 2 (β-arrestin) detection kit (DiscoverX Solutions for Drug Discovery, Fremont, CA). The luminescent activity was measured using an Infinite F200 Pro Illuminometer (Tecan Trading AG, Switzerland).
Eight different concentrations of compounds ranging from 0.1 nM to 100 nM were tested.

[1] = system: PTX-induced mechanical allodynia in mice; experiment: Paclitaxel (PTX)-induced mechanical allodynia, von Frey paw withdrawal threshold; assay type: in vivo, mouse; details: intrathecal 100 ng
Description: Pain models and drug injection: Animal model of chemotherapy-induced peripheral neuropathy (CIPN) was induced by paclitaxel (Sigma-Aldrich (St. Louis, MO), T7191, diluted with sterile saline). A single injection of paclitaxel ([…]) was given by intraperitoneal injection. A single injection of paclitaxel may induce mechanical allodynia for 4-6 weeks (X. Luo et al., Macrophage Toll-like Receptor 9 Contributes to Chemotherapy-Induced Neuropathic Pain in Male Mice. J Neurosci 39, 6848-6864 (2019)). Animal model of […] neuropathy was induced by streptozotocin (STZ, Sigma-Aldrich (St. Louis, MO), S0130, diluted with sterile saline). A single injection of STZ (75 mg/kg) was given as previously described (N. C. Brigham et al., Controlled release of etoricoxib from poly(ester urea) films for post-operative pain management. J Control Release 329, 316-327 (2021)). For intrathecal (i.t.) injection of MaR1, a spinal cord puncture was made by a Hamilton micro-syringe (Hamilton, Reno, NV) with a 30-gauge needle between the L5 and L6 levels to deliver reagents (5 μl) to the cerebral spinal fluid (J. L. Hylden, G. L. Wilcox, Intrathecal morphine in mice: a new technique. Eur. J Pharmacol. 67, 313-316 (1980)).
Nociceptive behavior tests: Gpr37l1^+/+, Gpr37l1^+/−, or Gpr37l1^−/− mice were habituated to the testing environment for at least two days before the baseline testing. All the animal behaviors were tested blindly. Thermal and mechanical sensitivity was tested before and after the injection of paclitaxel (PTX, 6 mg/kg, IP) and streptozotocin (STZ, 75 mg/kg, IP). MaR1 was intrathecally injected 3 days after the STZ and PTX injection. […] The 50% paw withdrawal threshold was measured by Dixon's up-down method (W. J. Dixon, Efficient analysis of experimental observations. Annu Rev Pharmacol Toxicol 20, 441-462 (1980)). Thermal sensitivity was measured using a Hargreaves radiant heat apparatus (IITC Life Science, Woodland Hills, CA) (K. Hargreaves, et al., A new and sensitive method for measuring thermal nociception in cutaneous hyperalgesia. Pain 32, 77-88 (1988)). […]

potency relative to TX14 in β-arrestin 2 assay (hGPR37L1): 10 times
β-arrestin signaling (hGPR37L1; 0.1 nM to 100 nM, n=6): 3.64 fold increase
EC50 (hGPR37L1; n=6, read-out: EC50 of β-arrestin response): 970 pM
SMILES: CC/C=C\C/C=C\C[C@H](O)\C=C/C=C/C=C/[C@H](O)C/C=C\CCC(=O)O [MaR1, Maresin 1]
effect on PTX-induced mechanical allodynia ([1]; Gpr37l1+/+ WT mice, 3 days after PTX): reversed PTX-induced mechanical allodynia in all the mice
effect on PTX-induced mechanical allodynia ([1]; Gpr37l1+/− mice): significantly reversed the mechanical allodynia in a majority
effect on PTX-induced mechanical allodynia ([1]; Gpr37l1−/− mice): no significant effects
